Source: article PMC6478823, “A suite of phenotypic assays to ensure pipeline diversity when prioritizing drug-like Cryptosporidium growth inhibitors” (Nature Communications, 2019)

Key:
C. parvum [1] = type: cell-based, Cryptosporidium parvum; details: compound at EC90; for Invasion Assay: Mean % Inhibition (parasites), Average: average of replicates; for Invasion Assay: Mean % Inhibition (parasites), Replicate 1a: single biological replicate 1; for Invasion Assay: Mean % Inhibition (parasites), Replicate 2a: single biological replicate 2; for Sporozoite invasion: yes/no grouping by phenotypic assay result
Description: The first step in infection is host cell invasion, which involves a complex process encompassing oocyst excystation, parasite motility, adhesion, and parasitophorous vacuole formation (Fig. 2a). Our strategy to assay for compounds affecting invasion was simply to expose C. parvum to compounds immediately after triggering excystation and throughout the invasion process, and then enumerate the parasite vacuoles after 3 h, prior to allowing the parasites to replicate (summarized in Fig. 2b).
Fig. 2 Invasion Assay. a Overview of life cycle stage investigated during the invasion assay. Representative TEM images of a C. parvum oocyst and HCT-8 cell shortly after infection (Scale bar = 500 nm). b Schematic of experimental design. […] Each point represents the mean and SD of at least two biological replicates with four technical replicates per experiment.
C. parvum invasion inhibition was measured by modifying the 48 h growth inhibition assay described above. […] In parallel, Iowa strain oocysts were excysted. […] Assay plates were incubated at 37 °C and 5% CO2 for 3 h.

C. parvum [2] = experiment: DNA replication assay (EdU incorporation); type: cell-based, Cryptosporidium parvum; details: compound at EC90; for DNA Synthesis Assay: Mean % Inhibition of EdU-labeling (normalized to parasite numbers), Average: average of replicates; for DNA Synthesis Assay: Mean % Inhibition of EdU-labeling (normalized to parasite numbers), Replicate 1: single replicate 1; for DNA Synthesis Assay: Mean % Inhibition of EdU-labeling (normalized to parasite numbers), Replicate 2: single replicate 2; for DNA Synthesis Assay: Mean % Inhibition of EdU-labeling (normalized to parasite numbers), Replicate 3: single replicate 3; for DNA Synthesis Assay: Mean % Inhibition of EdU-labeling (normalized to parasite numbers), Replicate 4: single replicate 4; for DNA Synthesis Assay: Mean % Inhibition of EdU-labeling (normalized to parasite numbers), Replicate 5: single replicate 5; for DNA synthesis: yes/no grouping by phenotypic assay result
Description: Following cell invasion, Cryptosporidium trophozoites grow and multiply to give rise to multinucleated type I meronts (Fig. 3a). The thymidine analog 5-ethynyl-2′-deoxyuridine (EdU) is efficiently incorporated into newly synthesized DNA, and can be detected using click chemistry. We used EdU to measure parasite intracellular DNA replication, as a surrogate for the more complex phenotype of intracellular growth and division. The approach for differentially labeling newly synthesized parasite DNA compared to host cell DNA was to take advantage of the fact that C. parvum replicates more quickly than the nearly confluent host cells. Thus, by adding EdU shortly before egress, it was possible to preferentially label replicating parasites (Fig. 3b, c). DNA staining with Hoechst labeled all of the host and parasite DNA, making it challenging to visualize and quantify parasite DNA. A simple DNA stain would also not distinguish pre-existing DNA from newly synthesized DNA (Fig. 3c). In contrast, EdU labeling only occurred with incorporation into newly synthesized DNA. Incorporated EdU was then easily stained for immunofluorescence and labeled parasites were quantified using high-content microscopy and an NIH ImageJ macro (Fig. 3c, DMSO condition). The […] hydroxyurea (10 mM), a known inhibitor of DNA replication, was used as a positive control for assay validation. […] Compounds with activity in this assay cannot be concluded to specifically target DNA replication, which is a complex phenotype.
Confluent HCT-8 cell monolayers in glass bottom plates were infected with C. parvum, and compounds were added at EC90 following invasion. At 9 h post-infection, 10 µM EdU was added, followed by incubation for another 2 h, and then washing, fixing, and staining for microscopy. […] 40 × dry objective (NA = 0.7); scale = 5 µm. Arrows indicate selected parasites with EdU-labeled DNA. d Quantification of EdU incorporation. […] Data are mean and SD of 2–5 biological replicates.
After incubation of cells with EdU for 2 h, cells were washed 3 times with PBS-D-gal and then fixed with PBS containing 4% PFA. Cells were then permeabilized and stained for EdU using the Click-iT® assay kit (Thermo Fisher Scientific, catalog# C10340) as per the manufacturer’s instructions. Cells were then imaged by focusing on parasites (note that the host cell nuclei are in a different focal plane) using a 40 × dry objective (0.7 NA) and EdU, and lectin numbers quantified using ImageJ software and the custom macro in Supplementary Method 1.

Structure (SMILES) | Invasion Assay: Mean % Inhibition (parasites), Average (C. parvum [1]) | Invasion Assay: Mean % Inhibition (parasites), Replicate 1a (C. parvum [1]) | Invasion Assay: Mean % Inhibition (parasites), Replicate 2a (C. parvum [1]) | DNA Synthesis Assay: Mean % Inhibition of EdU-labeling (normalized to parasite numbers), Average (C. parvum [2]) | DNA Synthesis Assay: Mean % Inhibition of EdU-labeling (normalized to parasite numbers), Replicate 1 (C. parvum [2]) | DNA Synthesis Assay: Mean % Inhibition of EdU-labeling (normalized to parasite numbers), Replicate 2 (C. parvum [2]) | DNA Synthesis Assay: Mean % Inhibition of EdU-labeling (normalized to parasite numbers), Replicate 3 (C. parvum [2]) | Sporozoite invasion (C. parvum [1]) | DNA Synthesis Assay: Mean % Inhibition of EdU-labeling (normalized to parasite numbers), Replicate 4 (C. parvum [2]) | DNA Synthesis Assay: Mean % Inhibition of EdU-labeling (normalized to parasite numbers), Replicate 5 (C. parvum [2]) | DNA synthesis (C. parvum [2]) | Invasion Assay: Mean % Inhibition (parasites), Replicate 3a (C. parvum [1]; single biological replicate 3) | Invasion Assay: Mean % Inhibition (parasites), Replicate 4a (C. parvum [1]; single biological replicate 4)
CSc1ccccc1C(=O)Nc1nc(-c2ccccn2)cs1 [MMV001246] | -7.41% | -15% | 0.521% | 72.11% | 57.69% | 70.62% | 88.02% | – | – | – | – | – | –
CCOc1ccc(Cl)c2c1B(O)OC2CN (stereo not shown) [AN6426] | -16.44% | -18% | -15% | 86.81% | 80.80% | 89.13% | 90.50% | – | – | – | – | – | –
Cc1cn(-c2cc(NC(=O)c3ccc(C)c(Nc4nccc(-c5cccnc5)n4)c3)cc(C(F)(F)F)c2)cn1 [Nilotinib] | -21.88% | -24% | -19% | 22.05% | 29.68% | 14.41% | – | – | – | – | – | – | –
Oc1c(CN2CCN(c3ccccc3F)CC2)cc(Br)c2cccnc12 [A-6] | -20.21% | -18% | -23% | 89.49% | 98.00% | 97.32% | 80.45% | no | 78.02% | 93.68% | yes | – | –
O=C(Nc1nc(-c2ccccn2)cs1)c1ccccc1Br [MMV665909] | -12.01% | -8.54% | -15% | 90.80% | 100.00% | 100.00% | 80.23% | – | 80.99% | 92.80% | – | – | –
c1ccc(CNc2nc(NC3CCCC3)nc3ccccc23)cc1 [B-5] | 82.99% | 81% | 85% | -9.25% | -17.04% | 19.85% | -30.57% | yes | – | – | no | – | –
CN(C)c1ccc(C(=C2C=CC(=[N+](C)C)C=C2)c2ccc(N(C)C)cc2)cc1 [Gentian Violet] | -6.62% | -1.27% | -12% | 47.40% | 62.13% | 74.23% | 5.82% | – | – | – | – | – | –
Cc1cccc(-n2ncc3c(=O)[nH]c(-n4nc(C)cc4NC(=O)C4CCCC4)nc32)c1 [C-5] | 13.07% | 31% | -4.39% | 98.17% | 96.33% | 100.00% | – | – | – | – | – | – | –
[H]/N=C(/NCCCCC)N/N=C/c1c[nH]c2ccc(OC)cc12 [Tegaserod] | 13.93% | 26% | 2% | -6.72% | -11.69% | -25.63% | 17.15% | no | – | – | no | – | –
c1ccc(CNc2nc(Nc3ccccc3)nc3ccccc23)cc1 [B-1] | 56.43% | 55% | 63% | -31.43% | -48.95% | -39.64% | -5.71% | yes | – | – | no | 42% | 66%
CC(=O)O[C@@]12CO[C@@H]1C[C@H](O)[C@@]1(C)C(=O)[C@H](O)C3=C(C)[C@@H](OC(=O)[C@H](O)[C@@H](NC(=O)OC(C)(C)C)c4ccccc4)C[C@@](O)([C@@H](OC(=O)c4ccccc4)[C@H]21)C3(C)C [Docetaxel] | -8.63% | -1.34% | -16% | 16.66% | 33.42% | -0.10% | – | – | – | – | – | – | –
Cc1cccc(-n2ncc3c(=O)[nH]c(-n4nc(C)cc4NC(=O)C4CC4)nc32)c1 [C-4] | 9.11% | 19% | -1.12% | 99.18% | 98.37% | 100.00% | – | – | – | – | – | – | –
CCOc1ccc2cc(-c3nn(CC4CCN(C)CC4)c4ncnc(N)c34)ccc2n1 [BKI-1369] | -7.94% | -5% | -11% | 16.97% | 25.00% | 8.94% | – | – | – | – | – | – | –
